Reference: US8278072B1, “Method for synthesis of sialylated products using reversible sialylation” (Health Research, Inc., priority 2007, dated 2012)
Where a name gives a salt, the structure may show the parent alone. Read-outs that look alike come from different tables or passages of the source.

Assays:
Format in all cases: biochemical
ST3Gal-II [1] = target: T1, ST3Gal-II (Rattus norvegicus, UniProt Q11205); assay: Reverse sialylation by ST3Gal-II in presence of citrate or 5′-nucleotides; details: for inhibition at 40000 µM: 40 mM citrate, donor [3]
T1 construct: purchased Calbiochem
T1 sequence (Q11205 1-350): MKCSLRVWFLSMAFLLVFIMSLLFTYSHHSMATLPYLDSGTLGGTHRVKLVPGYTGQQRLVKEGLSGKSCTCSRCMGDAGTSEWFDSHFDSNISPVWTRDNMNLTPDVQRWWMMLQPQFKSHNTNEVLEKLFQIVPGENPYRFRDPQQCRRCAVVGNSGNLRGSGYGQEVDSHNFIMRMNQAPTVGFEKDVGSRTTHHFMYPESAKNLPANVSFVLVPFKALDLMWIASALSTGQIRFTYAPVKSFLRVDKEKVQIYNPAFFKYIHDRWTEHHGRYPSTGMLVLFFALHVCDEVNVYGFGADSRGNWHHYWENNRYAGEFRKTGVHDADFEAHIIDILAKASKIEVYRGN
Protocol: (§1) FIG. 5. Effect of 5′-nucleotides on direct sialyltransferase activity (panel a) and reverse sialylation (panel b). a. Varying concentrations of 5′-CDP or 5′-CMP were added to 100 mM acceptor (specified below), 0.15 mM CMP-[9-^3H]NeuAc and either ST3Gal-II (0.2 mU), ST3Gal-III (0.5 mU) or ST6Gal-I (0.2 mU) for 4 h at 37° C. Products were separated using Sep-Pak C18 method. ST3Gal-III activity was measured using acceptor 4-O-MeGalβ1,4GlcNAcβ-O-Bn in the presence of 5′-CDP (●) and 5′-CMP (◯). ST6Gal-I activity was measured using Gal β1,4GlcNAcβ-O-Bn in the presence of 5′-CDP (▴) and 5′-CMP (Δ). ST3Gal-II using D-Fucβ1,3GalNAcα-O-Bn in the presence of 5′-CDP (▪) and 5′-CMP (□). b) Reverse sialylation by ST3Gal-II was measured in reaction mixtures containing 0.2 mM [9-^3H] [3], 7 mM 5′-CMP, ST3Gal-II (2 mU), D-Fucβ1,3GalNAcα-OBn (3.0 mM) and varying doses of either 5′-CDP (▴), 5′-UMP (◯) or 2-deoxy 5′-CMP (●) for 4 hours at 37° C. Reaction product ([9-^3H]NeuAcα2,3DFucβ1,3 GalNAcα-O-Bn) was isolated using Sep-Pak C18 method. In some runs, where was absent, the amount of CMP-NeuAc produced was quantified using the Dowex-1 Formate method in the presence of varying doses of 5′-CDP (▪).
(§2) Besides pH other distinctions were also observed between forward and reverse sialylation. In this regard, citrate ions tended to inhibit forward sialylation but not reverse sialylation activity (Table V). For these studies, the effect of citrate on the forward sialylation activity of ST3Gal-I, ST3Gal-II, ST3Gal-III and ST6Gal-I was examined. Reverse sialylation activity of ST3Gal-II was also measured in terms of: i) the formation of CMP-NeuAc from 5′-CMP; and ii) the transfer of NeuAc from this newly synthesized CMP-NeuAc to another O-glycan. From the data (Table V), it is evident that citrate inhibits the direct sialylation activity of all the enzymes mentioned above. However, both the synthesis of CMP-[9-^3H]NeuAc from 5′-CMP as well as the synthesis of [9-^3H]NeuAcα2,3D-Fucβ1,3 GalNAcα-O-Bn using the newly formed CMP-[9-^3H]NeuAc through reverse sialylation of ST3Gal-II was not inhibited by citrate.
(§3) The effect of 5′-nucleotides on forward sialylation (FIG. 5a) and reverse sialylation (FIG. 5b) were examined. […] The overall formation of [9-^3H]NeuAcα2,3D-Fucβ1,3 GalNAcα-O-Bn by the two-step reverse sialylation process, however, was inhibited by 5′-CDP and this is consistent with the finding that 5′-CDP inhibits forward sialylation in the second step.

[2] = target: T2, ST3Gal II (Cloned rat liver) (Rattus norvegicus, UniProt Q11205); assay: Forward (direct) sialyltransferase activity, ST3Gal-II
T2 construct: purchased Calbiochem
T2 sequence (Q11205 1-350): T1 sequence (Q11205 1-350)
Protocol: as §1, §2, §3

ST3Gal I (Cloned Human) = target: T3, ST3Gal I (Cloned Human) (Homo sapiens, UniProt Q11201); assay: Forward (direct) sialyltransferase activity, ST3Gal I
T3 sequence (Q11201 1-340): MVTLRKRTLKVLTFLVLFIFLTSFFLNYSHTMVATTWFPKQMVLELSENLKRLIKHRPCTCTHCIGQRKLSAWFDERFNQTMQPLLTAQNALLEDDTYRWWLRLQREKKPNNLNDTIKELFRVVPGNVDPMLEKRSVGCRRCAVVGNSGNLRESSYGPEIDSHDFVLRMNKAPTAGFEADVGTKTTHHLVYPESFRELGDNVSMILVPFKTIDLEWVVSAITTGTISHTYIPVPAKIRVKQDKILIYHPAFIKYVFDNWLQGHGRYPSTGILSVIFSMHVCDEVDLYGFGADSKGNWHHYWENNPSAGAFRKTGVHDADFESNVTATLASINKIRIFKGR
Protocol: as §2

[3] = target: T4, ST3Gal III (Cloned rat liver) (Rattus norvegicus, UniProt Q02734); assay: Forward (direct) sialyltransferase activity, ST3Gal-III
T4 construct: purchased Calbiochem
T4 sequence (Q02734 1-374): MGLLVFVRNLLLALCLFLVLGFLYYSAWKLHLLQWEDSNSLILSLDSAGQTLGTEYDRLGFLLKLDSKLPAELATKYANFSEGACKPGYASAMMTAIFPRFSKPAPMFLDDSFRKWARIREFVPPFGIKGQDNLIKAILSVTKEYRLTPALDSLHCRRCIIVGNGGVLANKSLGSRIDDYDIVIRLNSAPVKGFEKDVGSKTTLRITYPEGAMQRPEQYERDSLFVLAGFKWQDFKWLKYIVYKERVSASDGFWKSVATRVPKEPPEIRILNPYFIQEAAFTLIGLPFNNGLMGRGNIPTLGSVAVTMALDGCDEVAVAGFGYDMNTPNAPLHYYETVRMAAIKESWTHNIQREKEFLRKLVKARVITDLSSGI
Protocol: as §1, §2, §3

[4] = target: T5, ST6Gal I (Cloned rat liver) (Rattus norvegicus, UniProt P13721); assay: Forward (direct) sialyltransferase activity, ST6Gal-I
T5 construct: purchased Calbiochem
T5 sequence (P13721 1-403): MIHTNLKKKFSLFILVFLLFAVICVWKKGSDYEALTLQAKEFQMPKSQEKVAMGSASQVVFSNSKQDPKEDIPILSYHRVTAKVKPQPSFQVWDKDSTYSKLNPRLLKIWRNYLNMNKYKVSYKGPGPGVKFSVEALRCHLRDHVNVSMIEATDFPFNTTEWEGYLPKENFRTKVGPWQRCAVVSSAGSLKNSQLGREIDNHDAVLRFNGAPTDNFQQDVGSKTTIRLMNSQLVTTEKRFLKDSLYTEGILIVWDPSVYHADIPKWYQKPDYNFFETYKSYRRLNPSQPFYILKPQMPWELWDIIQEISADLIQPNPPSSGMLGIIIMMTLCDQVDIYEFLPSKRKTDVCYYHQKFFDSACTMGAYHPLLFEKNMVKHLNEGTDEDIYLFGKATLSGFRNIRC
Protocol: as §1, §2, §3

ST6Gal-I = target: T6, ST6Gal-I (Rattus norvegicus, UniProt P13721); assay: CMP-NeuAc / UMP-NeuAc formed by reverse sialylation as sialyl donor, ST6Gal-I activity; details: acceptor 2.5 mM Galβ1,4GlcNAcβ-O-Bn; donor [3] 0.0625 mM, 8 mM 5′-CMP or 5′-UMP, ST3Gal-II plus ST6GalI, 4 h
T6 construct: purchased Calbiochem
T6 sequence (P13721 1-403): T5 sequence (P13721 1-403)

ST3Gal-III = target: T7, ST3Gal-III (Rattus norvegicus, UniProt Q02734); assay: CMP-NeuAc / UMP-NeuAc formed by reverse sialylation as sialyl donor, ST3Gal-III activity; details: acceptor 2.5 mM 4-O-MeGalβ1,4GlcNAcβ-O-Bn; donor [3] 0.0625 mM, 8 mM 5′-CMP or 5′-UMP, ST3Gal-II plus ST3Gal-III, 4 h
T7 construct: purchased Calbiochem
T7 sequence (Q02734 1-374): T4 sequence (Q02734 1-374)

ST3Gal-II [5] = target: T1, ST3Gal-II; assay: CMP-NeuAc / UMP-NeuAc formed by reverse sialylation as sialyl donor, ST3Gal-II activity; details: acceptor 2.5 mM D-Fucβ1,3GalNAcα-O-Bn; donor [3] 0.0625 mM, 8 mM 5′-CMP or 5′-UMP, 4 h, blank subtracted
[6] = acceptor Galβ1,3GalNAcβ-O-Al 1.0 mM, 0.15 mM CMP-[9-3H]NeuAc, 4 hours

SMILES	inhibition at 40000 µM (ST3Gal-II [1]; read-out: Inhibition of synthesis of CMP-[9-3H]NeuAc from 5′-CMP)	inhibition at 40000 µM (ST3Gal-II [1]; read-out: Inhibition of synthesis of [9-3H]NeuAcα2,3D-Fucβ1,3GalNAcα-OBn through 5′-CMP)	Activity (Incorporation of [9-3H]NeuAc) with citrate (40 mM): synthesis of [9-3H]NeuAcα2,3D-Fucβ1,3GalNAcα-OBn through 5′-CMP (ST3Gal-II [1]; donor […] [3], 20 mM 5′-CMP, 3.0 mM D-Fucβ1,3GalNAcα-OBn, 4 hours)	Activity (Incorporation of [9-3H]NeuAc) with citrate (40 mM): synthesis of CMP-[9-3H]NeuAc from 5′-CMP (ST3Gal-II [1]; donor […] [3], 20 mM 5′-CMP, 5.0 mU ST3Gal-II, 4 hours)	inhibition at 40000 µM ([2]; 40 mM citrate, acceptor Galβ1,3GalNAcβ-O-Al)	Activity (Incorporation of [9-3H]NeuAc) with citrate (40 mM) [2, 6]	inhibition at 40000 µM (ST3Gal I (Cloned Human))	Activity (Incorporation of [9-3H]NeuAc) with citrate (40 mM) (ST3Gal I (Cloned Human); [6])	inhibition at 40000 µM ([3]; 40 mM citrate, acceptor 4-O-MeGalβ1,4GlcNAcβ-O-Bn)	Activity (Incorporation of [9-3H]NeuAc) with citrate (40 mM) ([3]; acceptor 4-O-MeGalβ1,4GlcNAcβ-O-Bn 1.0 mM, 0.15 mM CMP-[9-3H]NeuAc, 4 hours)	inhibition at 40000 µM ([4]; 40 mM citrate, acceptor Galβ1,4GlcNAcβ-O-Bn)	Activity (Incorporation of [9-3H]NeuAc) with citrate (40 mM) ([4]; acceptor Galβ1,4GlcNAcβ-O-Bn 1.0 mM, 0.15 mM CMP-[9-3H]NeuAc, 4 hours)	Incorporation of [9-3H]NeuAc into the acceptor, ST6Gal-I activity (ST6Gal-I)	Incorporation of [9-3H]NeuAc into the acceptor, ST3Gal-III activity (ST3Gal-III)	Incorporation of [9-3H]NeuAc into the acceptor, ST3Gal-II activity (ST3Gal-II [5])
O=C(O)CC(O)(CC(=O)O)C(=O)O [citrate, sodium citrate]	0%	0%	59131 CPM	48800 CPM	48.2%	33025 CPM	98.3%	402 CPM	64.3%	39115 CPM	92.4%	7471 CPM			
CC(=O)NC1C(O)CC(OP(=O)(O)OCC2OC(n3ccc(=O)[nH]c3=O)C(O)C2O)(C(=O)O)OC1C(O)C(O)CO (stereo not drawn) [UMP-NeuAc]													182 CPM	3804 CPM	1243 CPM
